Results taken from article PMC10517258, “PYRIDOX(AM)INE 5′-PHOSPHATE OXIDASE3 of Arabidopsis thaliana maintains carbon/nitrogen balance in distinct environmental conditions” (Plant Physiology, 2023).

Columns and labels:
Type in all cases: biochemical
[1] = target: T1, Arabidopsis NR2 (NIA2, At1g37130) (Arabidopsis thaliana, UniProt P11035); test: nitrate reductase activity with APADH, absorbance at […] nm; conditions: electron donor replacing NADH, 0.1 mM; 10 mM potassium nitrate, 0.005 mM FAD, phosphate pH 7.5, 25 °C
T1 construct: commercial recombinant enzyme expressed and purified from Pichia pastoris
T1 sequence (P11035 1-917): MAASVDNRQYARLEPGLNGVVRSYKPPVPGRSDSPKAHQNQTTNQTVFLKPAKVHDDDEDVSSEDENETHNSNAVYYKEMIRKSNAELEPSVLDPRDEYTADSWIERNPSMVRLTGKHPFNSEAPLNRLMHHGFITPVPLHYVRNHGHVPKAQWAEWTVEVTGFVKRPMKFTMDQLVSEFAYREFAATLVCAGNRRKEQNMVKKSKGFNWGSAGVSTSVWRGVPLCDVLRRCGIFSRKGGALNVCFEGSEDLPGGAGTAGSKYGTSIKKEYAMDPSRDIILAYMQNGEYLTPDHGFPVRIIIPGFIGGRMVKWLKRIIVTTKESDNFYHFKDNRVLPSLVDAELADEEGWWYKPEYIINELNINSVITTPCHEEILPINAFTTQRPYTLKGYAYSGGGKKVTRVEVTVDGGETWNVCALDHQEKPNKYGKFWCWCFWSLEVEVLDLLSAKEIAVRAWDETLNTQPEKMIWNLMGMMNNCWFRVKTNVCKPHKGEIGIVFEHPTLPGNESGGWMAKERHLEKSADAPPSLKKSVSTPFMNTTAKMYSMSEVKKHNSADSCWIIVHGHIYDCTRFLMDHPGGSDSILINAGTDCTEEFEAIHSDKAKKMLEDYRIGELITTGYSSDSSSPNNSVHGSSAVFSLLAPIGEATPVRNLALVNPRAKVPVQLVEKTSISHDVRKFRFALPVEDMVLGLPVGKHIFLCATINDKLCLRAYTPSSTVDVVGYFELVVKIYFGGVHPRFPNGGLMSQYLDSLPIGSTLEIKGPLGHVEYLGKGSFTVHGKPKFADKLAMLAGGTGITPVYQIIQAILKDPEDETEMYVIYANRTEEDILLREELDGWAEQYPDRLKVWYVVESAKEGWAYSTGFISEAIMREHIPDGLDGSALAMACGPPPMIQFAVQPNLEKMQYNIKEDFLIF

PDX3 (At5g49970) = target: T2, PDX3 (At5g49970) (Arabidopsis thaliana, UniProt Q9LTX3); test: coupled spectrophotometric NADHX repair assay, […] and […] nm; conditions: epimerization by NNRE domain; coupled to NNRD; 1 mM ATP, 2 mM MgCl2, 5 mM KCl, Tris-HCl pH 8, 25 °C; racemic NADHX
T2 construct: gene PPOX1; cDNA without predicted transit peptide (residues 2 to 73 removed), N-terminal His6 tag, pET-28a, E. coli BL21(DE3); NNRE and POX domains both present
T2 sequence (Q9LTX3 74-530): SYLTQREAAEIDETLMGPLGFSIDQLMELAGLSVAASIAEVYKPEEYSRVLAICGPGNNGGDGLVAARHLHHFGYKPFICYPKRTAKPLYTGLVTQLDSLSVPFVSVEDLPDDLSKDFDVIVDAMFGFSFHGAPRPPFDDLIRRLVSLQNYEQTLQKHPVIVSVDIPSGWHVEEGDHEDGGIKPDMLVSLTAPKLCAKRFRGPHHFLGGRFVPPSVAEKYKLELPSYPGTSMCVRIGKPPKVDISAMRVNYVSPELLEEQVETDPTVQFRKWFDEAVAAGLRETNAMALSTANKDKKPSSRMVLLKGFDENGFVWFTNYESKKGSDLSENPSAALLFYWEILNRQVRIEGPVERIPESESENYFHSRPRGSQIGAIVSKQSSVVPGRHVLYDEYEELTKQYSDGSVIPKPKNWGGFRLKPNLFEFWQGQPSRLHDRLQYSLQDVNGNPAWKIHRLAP

NNRD (dehydratase) = target: T3, NNRD (dehydratase) (Arabidopsis thaliana, UniProt Q94AF2); test: spectrophotometric dehydratase assay, […] and […] nm; conditions: 1 mM ATP, 2 mM MgCl2, 5 mM KCl, Tris-HCl pH 8, 25 °C; racemic NADHX
T3 construct: gene At5g19150; no transit peptide (residues 2 to 45 removed), C-terminal His6 tag, pET-24b, E. coli BL21(DE3); locus printed as At5g12150, probably a misprint of At5g19150
T3 sequence (Q94AF2 46-365): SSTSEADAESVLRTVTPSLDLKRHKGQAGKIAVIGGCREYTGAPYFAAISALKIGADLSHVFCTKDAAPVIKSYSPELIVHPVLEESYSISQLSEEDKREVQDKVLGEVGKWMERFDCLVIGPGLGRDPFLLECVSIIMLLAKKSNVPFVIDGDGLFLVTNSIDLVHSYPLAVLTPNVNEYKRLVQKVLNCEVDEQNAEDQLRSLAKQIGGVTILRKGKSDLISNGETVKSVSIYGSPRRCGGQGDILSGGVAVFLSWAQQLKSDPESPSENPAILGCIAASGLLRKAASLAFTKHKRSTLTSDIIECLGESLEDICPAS

SMILES: CC(=O)C1=CN([C@@H]2O[C@H](COP(=O)(O)OP(=O)(O)OC[C@H]3O[C@@H](n4cnc5c(N)ncnc54)[C@H](O)[C@@H]3O)[C@@H](O)[C@H]2O)C=CC1 [APADH]
- nitrate reductase activity with APADH, absorbance at 363 nm [1]: the latter was replaced with its analog, 3-acetylpyridine-adenine dinucleotide (APADH

SMILES: NC(=O)C1=CN([C@@H]2O[C@H](COP(=O)(O)OP(=O)(O)OC[C@H]3O[C@@H](n4cnc5c(N)ncnc54)[C@H](O)[C@@H]3O)[C@@H](O)[C@H]2O)[C@H](O)CC1 (mixture of isomers) [(R)-NADHX]
- coupled spectrophotometric NADHX repair assay, 290 and 340 nm (PDX3 (At5g49970)): leads to epimerization of (R)-NADHX in the racemate to (S)-NADHX by the NNRE domain

SMILES: NC(=O)C1=CN([C@@H]2O[C@H](COP(=O)(O)OP(=O)(O)OC[C@H]3O[C@@H](n4cnc5c(N)ncnc54)[C@H](O)[C@@H]3O)[C@@H](O)[C@H]2O)[C@@H](O)CC1 (mixture of isomers) [(S)-NADHX]
- spectrophotometric dehydratase assay, 290 and 340 nm (NNRD (dehydratase)): (S)-NADHX within a racemic mixture of NADHX is dehydrated to NADH by NNRD
